This assay concerns the target ROMK (Kir1.1) channel (Homo sapiens (Human), UniProt P48048). Kind of assay: Thallium Flux Assay. It is filed as cell-based. The procedure: A Thallium Flux Assay was performed on each of the final product compounds of the Examples. This assay has been described previously; see, e.g., PCT Published Application WO 2013/062900.

As a reminder, the IC50 is the concentration needed to halve the response being measured. Read a low IC50 as inhibition by little substance.

Chain of ROMK (Kir1.1) channel (P48048 whole entry): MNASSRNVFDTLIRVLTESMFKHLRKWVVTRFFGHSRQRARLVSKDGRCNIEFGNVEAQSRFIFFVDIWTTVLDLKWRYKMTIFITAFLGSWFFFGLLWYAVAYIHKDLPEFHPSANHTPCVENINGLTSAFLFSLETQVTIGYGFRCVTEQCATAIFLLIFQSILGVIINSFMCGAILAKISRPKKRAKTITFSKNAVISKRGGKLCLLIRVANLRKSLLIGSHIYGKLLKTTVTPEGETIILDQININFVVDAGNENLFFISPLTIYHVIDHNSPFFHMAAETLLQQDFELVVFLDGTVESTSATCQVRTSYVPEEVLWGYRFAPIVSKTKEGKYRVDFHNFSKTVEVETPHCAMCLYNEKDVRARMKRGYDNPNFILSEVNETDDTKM

Molecule `CC1=C(N2CC[C@]3(CC[C@H](NCc4ccc(-n5cnnn5)cc4)CC3)C2=O)COC1=O` [Example 43, (5s,8s)-2-(4-methyl-5-oxo-2,5-dihydrofuran-3-yl)-8-{[4-(1H-tetrazol-1-yl)benzyl]amino}-2-azaspiro[4.5]decan-1-one] had an IC50 of 49 nM.

In turn, `CC1=C(N2CCC3(CCC(N(C)C[C@H](O)c4ccc5c(c4C)COC5=O)CC3)C2=O)COC1=O` (some centres unmarked) [Example 124] displayed an IC50 of 64 nM. In turn, `CC1=C(N2CC[C@]3(CC[C@@H](N(C)[C@@H](C)c4ccc(-n5cnnn5)nc4)CC3)C2=O)COC1=O` [Example 95] came in with a half-maximal inhibitory concentration (IC50) of 24 nM.

`CC1=C(N2CC[C@]3(CC[C@@H](N[C@H](C)c4ccc5c(c4)Cn4nnnc4-5)CC3)C2=O)COC1=O` [Example 30, (5R,8r)-2-(4-methyl-5-oxo-2,5-dihydrofuran-3-yl)-8-{[(1R)-1-(5H-tetrazolo[5,1-a]isoindol-7-yl)ethyl]amino}-2-azaspiro[4.5]decan-1-one] registered an IC50 of 150 nM. For the molecule `CC1=C(N2CC[C@]3(CC[C@@H](N[C@@H](C)c4ccc5c(c4)CCc4nnnn4-5)CC3)C2=O)COC1=O` [Example 21, (5S,8r)-8-{[(1S)-1-(4,5-dihydrotetrazolo[1,5-a]quinolin-7-yl)ethyl]amino}-2-(4-methyl-5-oxo-2,5-dihydrofuran-3-yl)-2-azaspiro[4.5]decan-1-one], the half-inhibitory concentration (IC50) amounted to 44 nM. Against the preceding molecule, the IC50 is about 3.4-fold lower. The value for `CC1=C(N2CC[C@]3(CC[C@@](C)(NCc4ccc(-n5cnnn5)nn4)CC3)C2=O)COC1=O` [Example 48, (5r,8r)-8-methyl-2-(4-methyl-5-oxo-2,5-dihydrofuran-3-yl)-8-({[6-(1H-tetrazol-1-yl)pyridazin-3-yl]methyl}amino)-2-azaspiro[4.5]decan-1-one] was 7.7 nM; that for `C[C@H]1C[C@]2(CC[C@H](NCc3ccc4c(c3)Cn3nnnc3-4)CC2)C(=O)N1C1=CC(=O)OC1` [Example 62, (3S,5s,8R)-8-(((5H-tetrazolo[5,1-a]isoindol-7-yl)methyl)amino)-3-methyl-2-(5-oxo-2,5-dihydrofuran-3-yl)-2-azaspiro[4.5]decan-1-one] was 20 nM; that for `CC1=C(N2CC[C@]3(CC[C@](C)(N(C)Cc4ccc(-n5cnnn5)nn4)CC3)C2=O)COC1=O` [Example 115] was 15 nM. In the case of `CN(Cc1ccc(-n2cnnn2)nn1)C1CCC2(CC1)CCN(C1=CC(=O)OC1)C2=O` (centres unmarked) [Example 103], the IC50 came out at 87 nM. Against the preceding molecule, the IC50 is about 5.8-fold higher. The result for `CC1=C(N2CC[C@]3(CC[C@H](N(CC(=O)N(C)C)Cc4ccc(-n5cnnn5)nc4)CC3)C2=O)COC1=O` [Example 139] reads 120 nM; that for `CC1=C(N2CC[C@]3(CC[C@@H](NCc4ccc5c(c4)CCc4nnnn4-5)CC3)C2=O)COC1=O` [Example 51, (5r,8r)-8-(((4,5-dihydrotetrazolo[1,5-a]quinolin-7-yl)methyl)amino)-2-(4-methyl-5-oxo-2,5-dihydrofuran-3-yl)-2-azaspiro[4.5]decan-1-one], 4.3 nM; that for `CC1=C(N2CC[C@]3(CC[C@H](N(C)Cc4cnc(-n5cnnn5)cn4)CC3)C2=O)COC1=O` [Example 91], 690 nM. The value for `CC1=C(N2CC[C@]3(CC[C@H](N(C)Cc4ccc(-n5ncnn5)cc4)CC3)C2=O)COC1=O` [Example 111] was 300 nM; that for `CC1=C(N2CC[C@]3(CC[C@@H](N(C)Cc4cc5c(cc4C)-c4nnnn4C5)CC3)C2=O)COC1=O` [Example 122] was 26 nM. In turn, `CC1=C(N2CC[C@]3(CC[C@H](NCCc4ccc5c(c4)COC5=O)CC3)C2=O)COC1=O` [Example 3, (5s,8s)-2-(4-methyl-5-oxo-2,5-dihydrofuran-3-yl)-8-{[2-(1-oxo-1,3-dihydro-2-benzofuran-5-yl)ethyl]amino}-2-azaspiro[4.5]decan-1-one] displayed a 50% inhibitory concentration (IC50) of 200 nM.

With `C[C@H]1C[C@]2(CC[C@@H](NCc3ccc4c(c3)Cn3nnnc3-4)CC2)C(=O)N1C1=CC(=O)OC1` [Example 63, (3S,5r,8S)-8-(((5H-tetrazolo[5,1-a]isoindol-7-yl)methyl)amino)-3-methyl-2-(5-oxo-2,5-dihydrofuran-3-yl)-2-azaspiro[4.5]decan-1-one], inhibition was half-maximal at 23 nM (IC50). Against the preceding molecule, the IC50 is about 8.7-fold lower. The result for `C[C@@H]1C[C@]2(CC[C@H](NCc3ccc(-n4cnnn4)nc3)CC2)C(=O)N1C1=CC(=O)OC1` [Example 27, (3R,5s,8S)-3-methyl-2-(5-oxo-2,5-dihydrofuran-3-yl)-8-({[6-(1H-tetrazol-1-yl)pyridin-3-yl]methyl}amino)-2-azaspiro[4.5]decan-1-one] reads 38 nM. Regarding `CC1=C(N2CC[C@]3(CC[C@@H](NCCc4ccc5c(c4)COC5=O)CC3)C2=O)COC1=O` [Example 2, (5r,8r)-2-(4-methyl-5-oxo-2,5-dihydrofuran-3-yl)-8-{[2-(1-oxo-1,3-dihydro-2-benzofuran-5-yl)ethyl]amino}-2-azaspiro[4.5]decan-1-one], the half-maximal inhibitory concentration (IC50) was 44 nM. Take `CC1C[C@]2(CC[C@@H](NCc3cnc(-n4cnnn4)cn3)CC2)C(=O)N1C1=CC(=O)OC1` (some centres unmarked) [Example 49, (5r,8r)-3-methyl-2-(5-oxo-2,5-dihydrofuran-3-yl)-8-({[5-(1H-tetrazol-1-yl)pyrazin-2-yl]methyl}amino)-2-azaspiro[4.5]decan-1-one]: the 50% inhibitory concentration (IC50) was 240 nM. Compared with the last molecule, the IC50 is about 5.5-fold higher. Regarding `CC1=C(N2CC[C@]3(CC[C@@H](N(CC(N)=O)Cc4ccc(-n5cnnn5)nc4)CC3)C2=O)COC1=O` [Example 141], the 50% inhibitory concentration (IC50) amounted to 680 nM.

For the molecule `CC1=C(N2CC[C@]3(CC[C@@H](N(C)[C@H](C)c4ccc(-n5cnnn5)nc4)CC3)C2=O)COC1=O` [Example 94], inhibition was half-maximal at 11 nM (IC50). The value for `CC1=C(N2CC[C@]3(CC[C@@H](N(C)Cc4ccc(-n5ncnn5)cc4)CC3)C2=O)COC1=O` [Example 109] was 3.4 nM; that for `CC1=C(N2CC[C@]3(CC[C@@H](NCc4ccc(-n5cnnn5)nn4)CC3)C2=O)COC1=O` [Example 1, (5r,8r)-2-(4-methyl-5-oxo-2,5-dihydrofuran-3-yl)-8-({[6-(1H-tetrazol-1-yl)pyridazin-3-yl]methyl}amino)-2-azaspiro[4.5]decan-1-one] was 10 nM; that for `CC1=C(N2CC[C@]3(CC[C@@H](N[C@H](C)c4ccc5c(c4)CCc4nnnn4-5)CC3)C2=O)COC1=O` [Example 18, (5R,8r)-8-{[(1R)-1-(4,5-dihydrotetrazolo[1,5-a]quinolin-7-yl)ethyl]amino}-2-(4-methyl-5-oxo-2,5-dihydrofuran-3-yl)-2-azaspiro[4.5]decan-1-one] was 330 nM. In turn, `CC1=C(N2CC[C@]3(CC[C@@H](N(C)Cc4ccc5c(ccc6nnnn65)c4)CC3)C2=O)COC1=O` [Example 96] had a concentration for half-maximal inhibition (IC50) of 21 nM. `CC1=C(N2CC[C@]3(CC[C@@H](N(C)Cc4ccc5c(c4)CCc4nnnn4-5)CC3)C2=O)COC1=O` [Example 112]: the IC50 was determined as 32 nM. For `CC1=C(N2CC[C@]3(CC[C@H](NCc4ccc(-n5cnnn5)nc4)CC3)C2=O)COC1=O` [Example 6, (5s,8s)-2-(4-methyl-5-oxo-2,5-dihydrofuran-3-yl)-8-({[6-(1H-tetrazol-1-yl)pyridin-3-yl]methyl}amino)-2-azaspiro[4.5]decan-1-one], the half-inhibitory concentration (IC50) was determined as 450 nM.

“(5s,8s)-2-(4-methyl-5-oxo-2,5-dihydrofuran-3-yl)-8-({[5-(1H-tetrazol-1-yl)pyrazin-2-yl]methyl}amino)-2-azaspiro[4.5]decan-1-one [Example 13]”: it took 32 nM to reach half-maximal inhibition (IC50). `O=C1C=C(N2CC[C@]3(CC[C@@H](NCc4cnc(-n5cnnn5)cn4)CC3)C2=O)CO1` [Example 72, (5r,8r)-8-(((5-(1H-tetrazol-1-yl)pyrazin-2-yl)methyl)amino)-2-(5-oxo-2,5-dihydrofuran-3-yl)-2-azaspiro[4.5]decan-1-one] had a concentration for half-maximal inhibition (IC50) of 340 nM. Against the preceding molecule, the IC50 is about 11-fold higher. The result for `CN(Cc1cnc(-n2cnnn2)cn1)C1CCC2(CC1)CCN(C1=CC(=O)OC1)C2=O` (centres unmarked) [Example 128] reads 93 nM. `CC1=C(N2CC[C@]3(CC[C@H](N(C)[C@H](CO)c4ccc(-n5cnnn5)nc4)CC3)C2=O)COC1=O` [Example 85] gave a 50% inhibitory concentration (IC50) of 190 nM.

As to `CC1=C(N2CC[C@]3(CC[C@@H](N(C)Cc4ccc5c(c4)Cn4nnnc4-5)CC3)C2=O)COC1=O` [Example 106], the IC50 was found to be 8.8 nM.

Values taken from US9718808B2, “Inhibitors of the renal outer medullary potassium channel” (Merck Sharp & Dohme Corp., priority 2014, dated 2017).
